Experimental data: patent publication US4758555A, “Method for treating convulsions and epilepsy with organic copper compounds” (priority 1986, dated 1988)

Legend:
[1] = Subcutaneous Pentylenetetrazol (Metrazol) Seizure Threshold Test; assay type: in vivo, male Carworth Farms #1 mice or Sprague-Dawley rats; conditions: for Lowest effective dose, Metrazol (Phase I): Table X; for Anticonvulsant activity, Metrazol (Phase I): Table IV; for Protection against Metrazol-induced seizures (in words): running text
[2] = Maximal Electroshock Seizure Test; assay type: in vivo, male Carworth Farms #1 mice or Sprague-Dawley rats; conditions: for ED50: Mus musculus, read-out: ED50 for inhibition of seizures, MES (Phase II)
[3] = Table X, IP, challenge time 30 min
[4] = Table X, IP, challenge time 4 hrs
[5] = Table X, SC, challenge time 30 min
[6] = Table X, SC, challenge time 4 hrs

| Molecule | Lowest effective dose, Metrazol (Phase I) ([1]; IP, challenge time 30 min) | Lowest effective dose, Metrazol (Phase I) ([1]; IP, challenge time 4 hrs) | Lowest effective dose, MES (Phase I) [2, 3] | Lowest effective dose, MES (Phase I) [2, 4] | Lowest effective dose, Metrazol (Phase I) ([1]; SC, challenge time 30 min) | Lowest effective dose, Metrazol (Phase I) ([1]; SC, challenge time 4 hrs) | Lowest effective dose, MES (Phase I) [2, 5] | Lowest effective dose, MES (Phase I) [2, 6] | further results |
| --- | --- | --- | --- | --- | --- | --- | --- | --- | --- |
| CC(=O)Oc1ccccc1C(=O)O [Aspirin, acetylsalicylate, reference compound] |  |  |  |  |  |  |  |  | Anticonvulsant activity, Metrazol ([1]; Table VI, IP): I; Anticonvulsant activity, Maximal Electroshock ([2]; Table VI, IP): I |
| NC(=O)N1c2ccccc2C=Cc2ccccc21 [Carbamazepine, reference compound] |  |  |  |  |  |  |  |  | ED50 ([2]; Table X, IP, at time of peak activity): 9 mg/kg |
| O=C1CN=C(c2ccccc2Cl)c2cc([N+](=O)[O-])ccc2N1 [Clonazepam, reference compound] |  |  |  |  |  |  |  |  | ED50 ([1]; Mus musculus, ip, read-out: ED50 for inhibition of seizures, Metrazol (Phase II)): 0.2 mg/kg; ED50 ([2]; ip): 19 mg/kg |
| CCC1(c2ccccc2)NC(=O)NC1=O.CO.[OH][Cu][Cl] (stereo not shown) [Cu(II)5-ethyl-5-phenylhydantoin(HO)(Cl)(CH3 OH)] | 30 milligrams per kilogram of bod | I | 30 milligrams per kilogram of bod | I |  |  |  |  |  |
| [Cu+2].[O-]c1ccccc1C=NCCN=Cc1ccccc1[O-] [Cu(II) bissalicylatoethyleneimine] |  |  |  |  |  |  |  |  | Anticonvulsant activity, Metrazol (Phase I) ([1]; SC): I; Anticonvulsant activity, Maximal Electroshock (Phase I) ([2]; Table IV, IP): I; Anticonvulsant activity, Maximal Electroshock (Phase I) ([2]; Table IV, SC): I |
| O=C([O-])c1cc(Cl)ccc1O.O=C([O-])c1cc(Cl)ccc1O.[Cu+2] [Cu(II)(5-chlorosalicylate)2] |  |  |  |  |  |  |  |  | Anticonvulsant activity, Maximal Electroshock (Phase I) ([2]; Table II, IP): I |
| CCC1(CCC(C)C)C(=O)[N-]C(=O)NC1=O.CCC1(CCC(C)C)C(=O)[N-]C(=O)NC1=O.O.O.[Cu+2] [Cu(II)(Amobarbital)2 (H2 O)2] | 100 milligrams per kilogram of bod | I | 100 milligrams per kilogram of bod | I | 100 milligrams per kilogram of bod | I | 300 milligrams per kilogram of bod | I |  |
| CCC1(CCC(C)C)C(=O)[N-]C(=O)NC1=O.CCC1(CCC(C)C)C(=O)[N-]C(=O)NC1=O.[Cu+2].c1c[nH]cn1.c1c[nH]cn1 [Cu(II)(Amobarbital)2 (imidazole)2] | 300 milligrams per kilogram of bod | I | 600 milligrams per kilogram of bod | I | I | 600 milligrams per kilogram of bod | I | I |  |
| CCC1(CCC(C)C)C(=O)[N-]C(=O)NC1=O.CCC1(CCC(C)C)C(=O)[N-]C(=O)NC1=O.[Cu+2].c1ccncc1.c1ccncc1 [Cu(II)(Amobarbital)2 (pyridine)2] | 100 milligrams per kilogram of bod | 30 milligrams per kilogram of bod | 300 milligrams per kilogram of bod | 300 milligrams per kilogram of bod | 600 milligrams per kilogram of bod | 600 milligrams per kilogram of bod | I | 100 milligrams per kilogram of bod |  |
| C[C@H](N)C(=O)[O-].C[C@H](N)C(=O)[O-].[Cu+2] [Cu(II)(L-alaninate)2] |  |  |  |  |  |  |  |  | Protection against Metrazol-induced seizures (in words) [1]: effective against the Metrazol-induced seizure at all doses studied and at both time intervals, 30 minutes and 4 hours |
| N[C@@H](Cc1ccccc1)C(=O)[O-].N[C@@H](Cc1ccccc1)C(=O)[O-].[Cu+2] [Cu(II)(L-phenylalaninate)2] |  |  |  |  |  |  |  |  | Protection against Metrazol-induced seizures (in words) [1]: effective against the Metrazol-inducedseizure at all three doses studied but only at the shorter time period |
| C[C@@H](O)[C@H](N)C(=O)[O-].C[C@@H](O)[C@H](N)C(=O)[O-].O.[Cu+2] [Cu(II)(L-threoninate)2 H2 O] |  |  |  |  |  |  |  |  | Protection against Metrazol-induced seizures (in words) [1]: effective against the Metrazol-induced seizure at all doses studied and at both time intervals, 30 minutes and 4 hours |
| C[C@@H](O)[C@H](N)C(=O)[O-].C[C@H](N)C(=O)[O-].[Cu+2] [Cu(II)(L-threoninate)(L-alaninate)] |  |  |  |  |  |  |  |  | Protection against Metrazol-induced seizures (in words) [1]: effective against the Metrazol-induced seizure at all doses studied and at both time intervals, 30 minutes and 4 hours |
| C[C@@H](O)[C@H](N)C(=O)[O-].N[C@@H](CO)C(=O)[O-].[Cu+2] [Cu(II)(L-threoninate)(L-serinate)] |  |  |  |  |  |  |  |  | Protection against Metrazol-induced seizures (in words) [1]: effective against the Metrazol-induced seizure at all doses studied and at both time intervals, 30 minutes and 4 hours |
| CC(C)[C@H](N)C(=O)[O-].CC(C)[C@H](N)C(=O)[O-].O.[Cu+2] [Cu(II)(L-valinate)2 H2 O] |  |  |  |  |  |  |  |  | Protection against Metrazol-induced seizures (in words) [1]: effective against the Metrazol-induced seizure at all doses studied and at both time intervals, 30 minutes and 4 hours |
| CCCC(C)C1(CC)C(=O)[N-]C(=S)NC1=O.CCCC(C)C1(CC)C(=O)[N-]C(=S)NC1=O.[Cu+2] (stereo not shown) [Cu(II)(N--thiopental)2 (H2 O)2.5] | I | I | I | I | I | 30 milligrams per kilogram of bod | I | I |  |
| CCC1(c2ccccc2)C(=O)[N-]C(=O)NC1=O.CCC1(c2ccccc2)C(=O)[N-]C(=O)NC1=O.CCC1(c2ccccc2)C(=O)[N-]C(=O)NC1=O.CCC1(c2ccccc2)C(=O)[N-]C(=O)NC1=O.O.O.O.O.O.O.O.O.O.O.O.[Cu+2].[Cu+2] [Cu(II)(Phenobarbital)2 (H2 O)5.5] | 5 milligrams per kilogram of bod | 5 milligrams per kilogram of bod | 30 milligrams per kilogram of bod | 30 milligrams per kilogram of bod | 30 milligrams per kilogram of bod | 30 milligrams per kilogram of bod | 30 milligrams per kilogram of bod | 30 milligrams per kilogram of bod |  |
| CCC1(c2ccccc2)C(=O)[N-]C(=O)NC1=O.CCC1(c2ccccc2)C(=O)[N-]C(=O)NC1=O.[Cu+2].c1c[nH]cn1.c1c[nH]cn1 [Cu(II)(Phenobarbital)2 (imidazole)2] | 300 milligrams per kilogram of bod | 30 milligrams per kilogram of bod | 100 milligrams per kilogram of bod | 100 milligrams per kilogram of bod | 100 milligrams per kilogram of bod | 100 milligrams per kilogram of bod | I | 100 milligrams per kilogram of bod |  |
| CCCC(C)C1(CC)C(=O)N=C([S-])NC1=O.CCCC(C)C1(CC)C(=O)N=C([S-])NC1=O.O.O.[Cu+2] (stereo not shown) [Cu(II)(S--thiopental)2 (H2 O)2] | I | I | I | I | I | I | I | I |  |
| CC(=O)Oc1ccccc1C(=O)[O-].CC(=O)Oc1ccccc1C(=O)[O-].CS(C)=O.CS(C)=O.[Cu+2] [Cu(II)(acetylsalicylate)2 (dimethylsulfoxide)2] |  |  |  |  |  |  |  |  | Anticonvulsant activity, Maximal Electroshock (Phase I) ([2]; Table I, SC): I |
| CC(=O)Oc1ccccc1C(=O)[O-].CC(=O)Oc1ccccc1C(=O)[O-].[Cu+2].c1ccncc1.c1ccncc1 [Cu(II)(acetylsalicylate)2 (pyridine)2] |  |  |  |  |  |  |  |  | Anticonvulsant activity, Maximal Electroshock (Phase I) ([2]; Table I, SC): I |
| Cu(II)5-ethyl-5-phenylhydantoin(CH3 OH) | 100 milligrams per kilogram of bod | I | 100 milligrams per kilogram of bod | 100 milligrams per kilogram of bod | 100 milligrams per kilogram of bod | 300 milligrams per kilogram of bod | 100 milligrams per kilogram of bod | 30 milligrams per kilogram of bod |  |
| Cu(II)5-ethyl-5-phenylhydantoin(H2 O)2.5 | 300 milligrams per kilogram of bod | 100 milligrams per kilogram of bod | 100 milligrams per kilogram of bod | 100 milligrams per kilogram of bod | 30 milligrams per kilogram of bod | 100 milligrams per kilogram of bod | 100 milligrams per kilogram of bod | 30 milligrams per kilogram of bod |  |
| Cu(II) Salicylidene-L-histidinate |  |  |  |  |  |  |  |  | Anticonvulsant activity, Metrazol (Phase I) ([1]; IP): I; Anticonvulsant activity, Maximal Electroshock (Phase I) ([2]; Table IV, IP): I; Anticonvulsant activity, Maximal Electroshock (Phase I) ([2]; Table IV, SC): I |
| Cu(II)(L-cystinate)2 H2 O |  |  |  |  |  |  |  |  | Protection against Metrazol-induced seizures (in words) [1]: effective against the Metrazol-inducedseizure at all three doses studied but only at the shorter time period |
| Cu(II)n (Phenobarbital)n (H2 O)2n (H2 O)3n |  |  |  |  | 30 milligrams per kilogram of bod | 30 milligrams per kilogram of bod | 100 milligrams per kilogram of bod | 30 milligrams per kilogram of bod |  |
| Cu(II)n (Phenobarbital)n (pyridine)2n (H2 O)3n |  |  |  |  | 30 milligrams per kilogram of bod | 30 milligrams per kilogram of bod |  |  |  |
